Test results: patent US20110293600A1, “Anticancer Composition Comprising Antitumor Agent and Substance Having Inhibitory Effects on L1CAM Activity and Expression” (KOREA RESEARCH INSTITUTE OF BIOSCIENCE AND BIOTECHNOLOGY, priority 2008, published 2011)

Experiments:
[1] = tested on: SCK cells subcutaneously transplanted; test: Cancer growth in mouse xenograft model; assay type: in vivo, Nude mice Balb/c nu/nu; conditions: Example 3, FIG. 2, A10-A3 10 mg/kg three times per week, cisplatin 3 mg/kg twice per week
Protocol: Nude mice Balb/c nu/nu were purchased via Central Lab. Animal Inc. from Japan SLC. The mice were 6 to 8 weeks old, weighed 18 to 22 g and acclimated for one week in a lab of the Korean Research Institute of Bioscience and Biotechnology. SCK cells (3×10^7) were subcutaneously transplanted into 40 mice, and were randomly divided into four groups when grown to a tumor mass having a size of 100 to 200 mm^3 after one week. A10-A3 was administered to the mice at a dose of 10 mg/kg three times per week. Cisplatin was administered to the mice at a dose of 3 mg/kg twice per week. As the control group, mIgG was administered at the same level, instead of A10-A3 and saline was administered at the same level, instead of cisplatin. The weight of nude mice and tumors were measured three times per week.

[2] = tested on: L1CAM mRNA in cholangiocarcinoma cell lines (SCK); test: Detection of mRNA expression of L1CAM by RT-PCR; assay type: cell-based; conditions: SCK transduced with siRNA, cultured 72 hours; compared to siRNA non-specific for L1CAM; FIG. 5(A) upper
Protocol: In order to knock down expression of L1CAM in cholangiocarcinoma cell lines (SCK), the cells were transduced with siRNA (5′-[…]-3′, Sequence ID No. 1) specific for L1CAM and siRNA (5′-CAGTCGCGTTTGCGACTGG-3′, Sequence ID No. 2) non-specific for L1CAM and then cultured for 72 hours. In order to isolate the total RNA of the cultured cholangiocarcinoma cells, the cells were treated with a 1 ml trizol reagent (Invitrogen, Inc.) at room temperature for 5 minutes. 0.2 ml of chloroform was added to the cells, and the mixture was violently shaken about 15 times and allowed to react at room temperature for 3 minutes. The resulting solution was centrifuged at 4° C. and 14,000 rpm for […], 400 μl of the supernatant was transferred to another tube and the same amount of isopropanol was added to the residue and the mixture was allowed to react at room temperature for 10 minutes. The reaction solution was centrifuged at 4° C. at 14,000 rpm for 15 minutes, the supernatant was discarded, and the residue was washed with 75% ethanol. oligo(d)T, dNTP, RNase inhibitor and reverse transcriptase were added to 2 ug of the RNA thus extracted and the mixture was allowed to react at 42° C. for one hour to synthesize cDNA. […]

[3] = tested on: L1CAM protein in cholangiocarcinoma cell lines (SCK); test: Detection of protein expression of L1CAM using Western blotting; assay type: cell-based; conditions: SCK transduced with siRNA, cultured 72 hours; compared to siRNA non-specific for L1CAM; FIG. 5(A) lower
Protocol: In order to knock down expression of L1CAM in cholangiocarcinoma cell lines (SCK), the cells were transduced with siRNA (5′-[…]-3′, Sequence ID No. 1) specific for L1CAM and siRNA (5′-CAGTCGCGTTTGCGACTGG-3′, Sequence ID No. 2) non-specific for L1CAM and then cultured for 72 hours and expression of L1CAM was detected in protein level using Western blotting. In order to isolate the total protein of cell lines treated with siRNA, the cell lines were treated with 500 μl of cell lysis solution (RIPA buffer), and the proteins thus obtained were isolated in 10% SDS-PAGE, transferred to a nitrocellulose membrane and subjected to Western blotting. The nitrocellulose membrane was allowed to react in PBST (PBS+0.1% Tween 20) buffer containing 5% skim milk for one hour and washed two or more times with the PBST buffer. Anti-L1CAM antibody (A10-A3) was added as a primary antibody to the reacted nitrocellulose membrane, followed by allowing to react for 2 hours. The resulting membrane was washed with the PBST buffer five times and reacted with anti-mouse IgG HRP (horseradish peroxidase) conjugate (1:5000 Sigma) for one hour. The reaction solution was washed five times with the PBST buffer and was colored with enhanced chemiluminescence reagent (ECL) (Amersham biosciences) as a detection reagent.

Row | Molecule | proliferation inhibition (tumor growth) [1] | total amount of L1CAM expressed (mRNA) [2] | total amount of protein expressed (L1CAM) [3]
1 | N.N.[Cl][Pt][Cl] [cisplatin] | about 30% | – | –
2 | siRNA specific for L1CAM: siRNA (5′-GCCAATGCCTACATCTACGTT-3′, Sequence ID No. 1) specific for L1CAM (listed as DNA, chemistry not given here) | – | decrease | decrease
